Reference: patent US8722729B2, “Unsaturated fatty acid monoesters and diesters on ascorbic acid and cosmetic uses thereof” (Pierre Fabre Dermo-Cosmetique, priority 2009, dated 2014)
“Also recorded” adds a separate entry of the source.

Legend:
[1] = target: T1, hyaluronidase of bovine origin (BTH, Bovine Testis hyaluronidase) (Bos taurus, UniProt Q2YDK3); experiment: Assay of hyaluronidase activity (residual HA, HA-ELISA); format: biochemical
T1 sequence (Q2YDK3 1-553): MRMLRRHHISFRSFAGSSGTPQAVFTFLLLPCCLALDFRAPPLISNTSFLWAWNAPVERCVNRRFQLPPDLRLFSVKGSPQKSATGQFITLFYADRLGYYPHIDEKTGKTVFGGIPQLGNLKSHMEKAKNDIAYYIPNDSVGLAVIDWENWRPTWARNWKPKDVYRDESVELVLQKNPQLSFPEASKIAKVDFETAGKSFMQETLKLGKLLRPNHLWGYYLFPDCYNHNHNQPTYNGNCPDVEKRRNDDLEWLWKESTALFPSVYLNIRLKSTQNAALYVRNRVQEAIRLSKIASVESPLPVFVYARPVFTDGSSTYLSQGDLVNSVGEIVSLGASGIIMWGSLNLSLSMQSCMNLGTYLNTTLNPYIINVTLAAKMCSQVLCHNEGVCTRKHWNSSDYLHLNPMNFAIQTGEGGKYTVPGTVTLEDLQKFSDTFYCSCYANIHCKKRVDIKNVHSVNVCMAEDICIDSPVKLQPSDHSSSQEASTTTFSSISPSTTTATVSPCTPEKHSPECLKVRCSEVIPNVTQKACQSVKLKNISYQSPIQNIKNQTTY
Description: Hyaluronidase activity is measured by the assay of residual hyaluronic acid (HA). The substrate is fixed to a carrier then placed in the presence of an enzyme and a quantity of compound to be tested. The residual HA i.e. the non-hydrolyzed HA is assayed using a HA-Elisa detection system: Hyaluronan enzyme-linked immunosorbent assay (Echelon Biosciences®).
0.5 units of hyaluronidase of bovine origin (BTH, Bovine Testis hyaluronidase) were pre-incubated at 37° C. with the compound to be tested. This mixture was deposited on the HA fixed to the surface of a microplate well. The enzymatic reaction took place at pH 7.2n at 37° C. Washing was followed by a recognition step of residual HA by hyaluronectin (NH). The quantity of bonded NH was measured by ELISA using an anti-NH antibody conjugated with alkaline phosphatase. The p-nitrophenyl phosphate disodium salt (pnNpp) substrate of the phosphatase allows spectrometric detection at 405 nm. (Delpech B et al., Analytical Biochemistry 149, 555(565 (1985); Robert Stern et al. Analytical Biochemistry 251, 263-269 (1997)). OD intensity was correlated with the quantity of residual HA. The quantity of residual HA is directly linked to enzymatic activity. In the presence of an inhibitor, the larger the quantity of residual HA the more the sample is inhibiting. A percentage inhibition of hyaluronidase will be expressed.
Therefore the net enzymatic activities were calculated which represent the difference in mean gross activity without enzyme and the gross activity of the enzyme with or without the compound to be tested.
The percentage enzymatic inhibition related to the compound to be tested was calculated as follows: % inhibition=(Maximum net enzymatic activity)−Net enzymatic activity in the presence of the compound to be tested)/Maximum net enzymatic activity.
where the maximum net enzymatic activity represents the mean net enzymatic activity of 0.5 U.

B16-F10 cells = experiment: Assay of melanin in B16-F10 cells (colorimetric, α-MSH stimulated); format: cell-based, murine; conditions: for inhibition at 10 µM / inhibition at 20 µM / IC50 / inhibition at 50 µM / inhibition at 100 µM: Mus musculus; for inhibition at 10 µM / inhibition at 20 µM / inhibition at 50 µM / inhibition at 100 µM: B16-F10, 72 hours, read-out: Percentage inhibition of intracellular melanin; for IC50: B16-F10, α-MSH stimulated, read-out: IC50 intracellular melanin
Description: Similarly, to evidence the depigmenting activity of the compounds of general formula (I) according to the invention, the effect of these compounds was measured on the synthesis of melanin by colorimetric assay on a cell line of murine melanomas: line B16-F10.
This is a test to measure the synthesis of melanin by colorimetric assay on a cell line of murine melanomas: line B16-F10. This test allows the evaluation of the depigmenting property of active ingredients.
The B16-F10 cells were seeded onto 96-well plates in DMEM medium supplemented with FCS (fetal calf serum) and incubated 24 hours at 37° C., 5% CO2. The cells were then stimulated with α-MSH (to stimulate the synthesis of melanin, the stimulation observed was about 150%) and treated 72 hours with the active ingredients to be tested. Each concentration of active ingredient was tested at least in triplicate. Total melanin followed by intracellular melanin dissolved in lysis buffer were then assayed by absorbency reading at 405 nm. The total proteins were determined in the lysate and the results are expressed in mg melanin/mg proteins. The percentage activity was calculated as follows: […]
A negative value indicates an inhibition, whereas a positive value indicates induced synthesis of melanin.

[2] = tested on: Human dermal papilla cells; experiment: In vitro stimulation of the proliferation of dermal papilla cells (BrdU incorporation); format: cell-based
Description: Human dermal papilla cells (Promocell) were placed in culture and held in early passage culture in DMEM medium supplemented with 10% FCS. They were then seeded in a 96-well plate in DMEM medium supplemented with 10% FCS for 12 h. The culture medium was replaced by serum-free DMEM medium then by DMEM supplemented with 1% FCS and molecules 1, 2, 3 and 4 at the different tested concentrations After incubation for 60 h, cell proliferation was evaluated by incorporation of BrdU.
The diagrams in appended FIG. 1 show the increase in BrdU incorporation and the stimulated cellular proliferation of the cells in the presence of the different molecules (as a percent of the control).

human hair follicle [3] = experiment: Stimulation of the growth of the human hair follicle (Philpott culture); format: cell-based; conditions: 15 μM; for D4 % activity (hair growth stimulation compared with the control) / D4 % growth: 4 days' culture; for D8 % activity (hair growth stimulation compared with the control) / D8 % growth: 8 days' culture
Description: (§1) Biopsies of the occipital region of a human scalp were obtained from operative waste. The hair follicles were isolated by micro-dissection under binocular magnification. They were individually placed in culture following Philpott's technique (Philpott M P et al, J Cell Sci. 97:463-471, 1990). The hair follicles in anagen phase were incubated in 24-well culture dishes in the presence of William's medium supplemented with 10 μg/mL Insulin, 10 μg/mL Transferrin, 10 ng/mL Hydrocortisone, 1 mM Glutamax I, 100 U/mL Penicillin, 100 μg/mL Streptomycin, 250 ng/mL Amphotericin B and in the presence of molecules 3 or 4 for 11 days. The incubation medium was regularly renewed. The lengthening (in μm) of each hair follicle was measured at 4 and 8 days' culture in captured images of the hair follicles.
The diagrams in appended FIG. 2 show the effect of molecules 3 and 4 on the lengthening of hair follicles after incubation for 4 days and for 8 days.
The following table (Table 5) gives the growth percentages obtained for each treatment condition and the percentages for stimulated hair growth obtained with molecules 3 and 4 compared with the control.

human hair follicle [4] = experiment: Evaluation of hair bulb degeneration (apoptotic follicles at D11); format: cell-based
Description: as §1
The degeneration of the follicle when kinetics cease after 11 culture days, is evaluated by observation of morphological damage of the hair bulb (rounding, deformation). The percentage apoptosis is calculated by counting the number of apoptotic hair follicles relative to the total number of follicles

[5] = 0.5 U BTH, read-out: Enzymatic inhibition (mean as a percentage)

inhibition at 10 µM [1, 5] [%]	inhibition at 50 µM [1, 5] [%]	IC50 (B16-F10 cells) [µM]	Compound	Effect on hyaluronidase [1]	Inhibition of the synthesis of intracellular melanin compared with vitamin C (B16-F10 cells)	inhibition at 10 µM (B16-F10 cells) [%]	inhibition at 20 µM (B16-F10 cells) [%]	Proliferation of dermal papilla cells [2]	D4 % activity (hair growth stimulation compared with the control) (human hair follicle [3]) [%]	D4 % growth (human hair follicle [3]) [%]	D8 % activity (hair growth stimulation compared with the control) (human hair follicle [3]) [%]	D8 % growth (human hair follicle [3]) [%]	inhibition at 50 µM (B16-F10 cells) [%]	inhibition at 100 µM (B16-F10 cells) [%]	further results
31	71	–	CCCCCCCCCCCCCCCC(=O)OC[C@H](O)[C@H]1OC(=O)C(O)=C1O [6-ascorbyl palmitate, reference compound]	advantageously inhibits hyaluronidase, from 10 to 250 μM, with dose effect	–	–	–	–	–	–	–	–	–	–	inhibition at 25 µM ([1]; 25 μM, 0.5 U BTH, read-out: Enzymatic inhibition (mean as a percentage)): 57%; inhibition at 100 µM ([1]; 100 μM, 0.5 U BTH, read-out: Enzymatic inhibition (mean as a percentage)): 73%; inhibition at 200 µM ([1]; 200 μM, 0.5 U BTH, read-out: Enzymatic inhibition (mean as a percentage)): 79%; inhibition at 250 µM ([1]; 250 μM, 0.5 U BTH, read-out: Enzymatic inhibition (mean as a percentage)): 112%
–	–	20	CC/C=C\C/C=C\C/C=C\CCCCCCCC(=O)OC1=C(OC(=O)CCCCCCC/C=C\C/C=C\C/C=C\CC)C(C2COC(C)(C)O2)OC1=O (centres unmarked) [Molecule 2, dioctadeca-9,12,15-trienoate of (9Z,9′Z,12Z,12′Z,15Z,15′Z)-2-(2,2-dimethyl-1,3-dioxolan-4-yl)-5-oxo-2,5-dihydrofuran-3,4-diyl]	–	greater than that of vitamin C	11	53	induce proliferation of the cells but to a lesser extent than molecules 1 and 4	–	–	–	–	–	–	–
–	–	20	CCCCC/C=C\C/C=C\C/C=C\CCCCC(=O)OC1=C(OC(=O)CCCC/C=C\C/C=C\C/C=C\CCCCC)C(C2COC(C)(C)O2)OC1=O (centres unmarked) [Molecule 3, dioctadeca-6,9,12-trienoate of (6Z,6′Z,9Z,9′Z,12Z,12′Z)-2-(2,2-dimethyl-1,3-dioxolan-4-yl)-5-oxo-2,5-dihydrofuran-3,4-diyl]	–	greater than that of vitamin C	25	50	induce proliferation of the cells but to a lesser extent than molecules 1 and 4	25	52	18	85	–	–	–
72	111	53	CCCCCCCC/C=C\CCCCCCCC(=O)OC1=C(OC(=O)CCCCCCC/C=C\CCCCCCCC)C(C2COC(C)(C)O2)OC1=O (centres unmarked) [Molecule 4, dioleate of (Z)-2-(2,2-dimethyl-1,3-dioxolan-4-yl)-5-oxo-2,5-dihydrofuran-3,4-diyl]	strongly inhibit hyaluronidase; also recorded: equivalent to or more active than ascorbyl palmitate	greater than that of vitamin C	-16	6	–	19	51	12	84	44	–	Number of apoptotic bulbs at D11 (Number of total follicles) (human hair follicle [4]; 15 μM, 11 days of incubation): 6 (12); % apoptosis (human hair follicle [4]; 15 μM, 11 days of incubation, control 75): 50%; Effect on hair degeneration (human hair follicle [4]; 11 days): marked limiting of hair degeneration; Proliferation stimulation of dermal papilla cells ([2]; 6.25 μM, 60 h): 113.9%
31	76	66	CCCCC/C=C\C/C=C\CCCCCCCC(=O)OC1=C(O)C(C2COC(C)(C)O2)OC1=O (centres unmarked) [Molecule 5, (9Z,12Z)-5-(2,2-dimethyl-1,3-dioxolan-4-yl)-4-hydroxy-2-oxo-2,5-dihydrofuran-3-yl octadeca-9,12-dienoate]	strongly inhibit hyaluronidase; also recorded: equivalent to or more active than ascorbyl palmitate	greater than that of vitamin C	4	13	–	–	–	–	–	35	78	–
34	106	105	CCCCCCCC/C=C\CCCCCCCC(=O)OC1=C(O)C(C2COC(C)(C)O2)OC1=O (centres unmarked) [Molecule 6, 5-(2,2-dimethyl-1,3-dioxolan-4-yl)-4-hydroxy-2-oxo-2,5-dihydrofuran-3-yl oleate]	strongly inhibit hyaluronidase; also recorded: equivalent to or more active than ascorbyl palmitate	greater than that of vitamin C	–	–	–	–	–	–	–	7	49	–
